Tests used:
Conditions in all cases: exposure time: 72 h
E21 [1] = patient-derived glioblastoma stem cells of mesenchymal subtype; experiment: phenotypic distance (Euclidean, principal components) from DMSO controls (arbitrary units); higher = stronger morphological change
E31 [2] = patient-derived glioblastoma stem cells of proneural subtype; experiment: as above
FT3469 [3] = normal neural stem cell line; experiment: as above
E13 [4] = patient-derived glioblastoma stem cells of classical subtype; experiment: as above
E34 [5] = patient-derived glioblastoma stem cells of proneural subtype; experiment: as above
E57 [6] = patient-derived glioblastoma stem cells of mesenchymal subtype; experiment: as above
E28 [7] = patient-derived glioblastoma stem cells of classical subtype; experiment: as above
E21 [8] = experiment: surviving fraction (nuclei count normalised to DMSO); higher = more cells surviving (less toxic)
E31 [9] = experiment: as above
FT3469 [10] = experiment: as above
E13 [11] = experiment: as above
E34 [12] = experiment: as above
E57 [13] = experiment: as above
E28 [14] = experiment: as above
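Wherever phenotypic distance (Euclidean, principal components) from DMSO controls is given: cell Painting imaging in 384-well plates, CellProfiler features reduced to at least 20 principal components, Euclidean distance versus same-plate DMSO vehicle wells (0.1% v/v), median over six images per well.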
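Wherever surviving fraction (nuclei count normalised to DMSO) is given: nuclei counted by high-content imaging of Hoechst-stained cells in laminin-coated 384-well plates, relative to 0.1% DMSO vehicle wells, with staurosporine as cell-death control.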

## Nc1ncn([C@@H]2O[C@H](CO)[C@@H](O)[C@H]2O)c(=O)n1 [5-azacytidine]
E21 [1]; 4.11523 nM
  phenotypic distance: 1.24
E21 [1]; 12.34567901 nM
  phenotypic distance: 5.31
E21 [1]; 37.037 nM
  phenotypic distance: 1.2
E21 [1]; 111.1111111 nM
  phenotypic distance: 1.66
E21 [1]; 333.333 nM
  phenotypic distance: 1.85
E21 [1]; 1000 nM
  phenotypic distance: 2.19
E21 [1]; 3000 nM
  phenotypic distance: 3.53
E31 [2]; 4.11523 nM
  phenotypic distance: 1.21
E31 [2]; 12.34567901 nM
  phenotypic distance: 1.33
E31 [2]; 37.037 nM
  phenotypic distance: 1.03
E31 [2]; 111.1111111 nM
  phenotypic distance: 0.932
E31 [2]; 333.333 nM
  phenotypic distance: 1.18
E31 [2]; 1000 nM
  phenotypic distance: 1.85
E31 [2]; 3000 nM
  phenotypic distance: 3.43
FT3469 [3]; 4.11523 nM
  phenotypic distance: 1.08
FT3469 [3]; 12.34567901 nM
  phenotypic distance: 1.06
FT3469 [3]; 37.037 nM
  phenotypic distance: 0.921
FT3469 [3]; 111.1111111 nM
  phenotypic distance: 0.795
FT3469 [3]; 333.333 nM
  phenotypic distance: 0.957
FT3469 [3]; 1000 nM
  phenotypic distance: 1.34
FT3469 [3]; 3000 nM
  phenotypic distance: 2.03
E13 [4]; 4.11523 nM
  phenotypic distance: 0.922
E13 [4]; 12.34567901 nM
  phenotypic distance: 0.542
E13 [4]; 37.037 nM
  phenotypic distance: 0.817
E13 [4]; 111.1111111 nM
  phenotypic distance: 1.58
E13 [4]; 333.333 nM
  phenotypic distance: 1.47
E13 [4]; 1000 nM
  phenotypic distance: 3
E13 [4]; 3000 nM
  phenotypic distance: 6.57
E34 [5]; 4.11523 nM
  phenotypic distance: 0.558
E34 [5]; 12.34567901 nM
  phenotypic distance: 0.75
E34 [5]; 37.037 nM
  phenotypic distance: 1.12
E34 [5]; 111.1111111 nM
  phenotypic distance: 0.943
E34 [5]; 333.333 nM
  phenotypic distance: 1.52
E34 [5]; 1000 nM
  phenotypic distance: 1.39
E34 [5]; 3000 nM
  phenotypic distance: 2.19
E57 [6]; 4.11523 nM
  phenotypic distance: 0.981
E57 [6]; 12.34567901 nM
  phenotypic distance: 1.07
E57 [6]; 37.037 nM
  phenotypic distance: 1.13
E57 [6]; 111.1111111 nM
  phenotypic distance: 1.59
E57 [6]; 333.333 nM
  phenotypic distance: 1.59
E57 [6]; 1000 nM
  phenotypic distance: 3.31
E57 [6]; 3000 nM
  phenotypic distance: 5.71
E28 [7]; 4.11523 nM
  phenotypic distance: 0.861
E28 [7]; 12.34567901 nM
  phenotypic distance: 1.19
E28 [7]; 37.037 nM
  phenotypic distance: 1.09
E28 [7]; 111.1111111 nM
  phenotypic distance: 0.941
E28 [7]; 333.333 nM
  phenotypic distance: 0.932
E28 [7]; 1000 nM
  phenotypic distance: 1.03
E28 [7]; 3000 nM
  phenotypic distance: 1.84
E21 [8]; 4.11523 nM
  surviving fraction: 0.745
E21 [8]; 12.34567901 nM
  surviving fraction: 0.93
E21 [8]; 37.037 nM
  surviving fraction: 0.921
E21 [8]; 111.1111111 nM
  surviving fraction: 0.871
E21 [8]; 333.333 nM
  surviving fraction: 0.665
E21 [8]; 1000 nM
  surviving fraction: 0.6
E21 [8]; 3000 nM
  surviving fraction: 0.426
E31 [9]; 4.11523 nM
  surviving fraction: 0.945
E31 [9]; 12.34567901 nM
  surviving fraction: 0.84
E31 [9]; 37.037 nM
  surviving fraction: 0.848
E31 [9]; 111.1111111 nM
  surviving fraction: 0.9
E31 [9]; 333.333 nM
  surviving fraction: 0.718
E31 [9]; 1000 nM
  surviving fraction: 0.644
E31 [9]; 3000 nM
  surviving fraction: 0.298
FT3469 [10]; 4.11523 nM
  surviving fraction: 0.82
FT3469 [10]; 12.34567901 nM
  surviving fraction: 0.768
FT3469 [10]; 37.037 nM
  surviving fraction: 0.86
FT3469 [10]; 111.1111111 nM
  surviving fraction: 0.944
FT3469 [10]; 333.333 nM
  surviving fraction: 0.915
FT3469 [10]; 1000 nM
  surviving fraction: 0.734
FT3469 [10]; 3000 nM
  surviving fraction: 0.665
E13 [11]; 4.11523 nM
  surviving fraction: 0.808
E13 [11]; 12.34567901 nM
  surviving fraction: 0.874
E13 [11]; 37.037 nM
  surviving fraction: 0.939
E13 [11]; 111.1111111 nM
  surviving fraction: 0.778
E13 [11]; 333.333 nM
  surviving fraction: 0.755
E13 [11]; 1000 nM
  surviving fraction: 0.67
E13 [11]; 3000 nM
  surviving fraction: 0.358
E34 [12]; 4.11523 nM
  surviving fraction: 0.97
E34 [12]; 12.34567901 nM
  surviving fraction: 1.02
E34 [12]; 37.037 nM
  surviving fraction: 1.01
E34 [12]; 111.1111111 nM
  surviving fraction: 1.07
E34 [12]; 333.333 nM
  surviving fraction: 0.862
E34 [12]; 1000 nM
  surviving fraction: 0.731
E34 [12]; 3000 nM
  surviving fraction: 0.643
E57 [13]; 4.11523 nM
  surviving fraction: 0.959
E57 [13]; 12.34567901 nM
  surviving fraction: 0.904
E57 [13]; 37.037 nM
  surviving fraction: 0.961
E57 [13]; 111.1111111 nM
  surviving fraction: 0.841
E57 [13]; 333.333 nM
  surviving fraction: 0.78
E57 [13]; 1000 nM
  surviving fraction: 0.507
E57 [13]; 3000 nM
  surviving fraction: 0.287
E28 [14]; 4.11523 nM
  surviving fraction: 0.899
E28 [14]; 12.34567901 nM
  surviving fraction: 1.22
E28 [14]; 37.037 nM
  surviving fraction: 0.711
E28 [14]; 111.1111111 nM
  surviving fraction: 0.969
E28 [14]; 333.333 nM
  surviving fraction: 0.753
E28 [14]; 1000 nM
  surviving fraction: 0.984
E28 [14]; 3000 nM
  surviving fraction: 0.497
